From patent US20130005728A1, “SUBSTITUTED PYRIMIDINES AS PROSTAGLANDIN D2 RECEPTOR ANTAGONISTS” (AVENTIS PHARMACEUTICALS INC., priority 2010, published 2013)
Structures can show the parent of a compound that is named as a salt. Where two headings read alike, the source gives them in different places.

Molecular target: T1, human prostaglandin D2 receptor (DP) (DP1) (Homo sapiens, UniProt Q13258)
T1 construct: endogenous in cells; host or cells: human platelets in platelet-rich plasma from donor blood
T1 sequence (Q13258 1-359): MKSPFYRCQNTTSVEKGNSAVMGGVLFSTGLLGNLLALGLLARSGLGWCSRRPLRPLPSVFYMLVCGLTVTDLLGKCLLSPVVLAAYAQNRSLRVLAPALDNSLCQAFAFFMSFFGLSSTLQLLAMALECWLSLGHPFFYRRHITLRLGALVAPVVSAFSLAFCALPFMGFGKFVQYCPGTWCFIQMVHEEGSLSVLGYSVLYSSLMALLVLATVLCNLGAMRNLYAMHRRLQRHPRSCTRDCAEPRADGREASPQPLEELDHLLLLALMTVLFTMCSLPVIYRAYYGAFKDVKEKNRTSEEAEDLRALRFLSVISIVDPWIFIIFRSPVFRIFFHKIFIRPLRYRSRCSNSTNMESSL
Test: Antagonist activity on BW245C-induced cAMP accumulation in human platelet rich plasma (hPRP) by HTRF cAMP assay
Format: cell-based
Details: inhibition of BW245C (25 nM)-induced cAMP accumulation in human platelet rich plasma
Source text: Assessment of Antagonist Activities of Compounds on BW245C-induced cAMP Accumulation in Human Platelet Rich Plasma (hPRP) by HTRF cAMP Assay
The purpose of the assay is to assess compound antagonist activity at the human prostaglandin D2 receptor (DP) (DP1) in the presence of plasma proteins. DP is a Gs-protein coupled receptor, the activation of which induces cAMP accumulation. BW245C is a DP selective agonist. Therefore, by measuring inhibition of BW245C-induced 3′-5′-cyclic adenosine monophosphate (cAMP) accumulation in human platelet-rich plasma (PRP), the assay enables us to identify or confirm antagonist compounds at the human DP and/or IP receptors.
The principle of the assay is based on HTRF technology (Homogeneous Time-Resolved Fluorescence). The method is a competitive immunoassay between native cAMP produced by cells and the tracer cAMP labeled with the dye d2. The tracer is visualized by a monoclonal antibody anti-cAMP labeled with cryptate. The specific signal (i.e. energy transfer) is inversely related to the concentration of cAMP in the standards or samples. The assay was carried out using the cAMP HiRange HTRF kit from Cisbio (catalog number 62AM6PEB, 888-963-4567).
Preparation of Human Platelet Rich Plasma (hPRP): Human blood was obtained from sanofi-aventis on-site blood donor panel. The blood was gently transferred from the blood bag into a 50 ml centrifuge tube and centrifuged at 223×g (1000 rpm) for 15 minutes without break. The top layer (PRP) was aspirated slowly and transferred to a 250 ml centrifuge tube. The PRP was placed in the cell culture hood for approximately 30 minutes before use.
Preparation of IBMX: IBMX is a phosphodiesterase (PDE) inhibitor and is included in the assay to prevent breakdown of cAMP. 1M IBMX stock was prepared in DMSO. 20 μL of 1M IBMX stock was then added into 30 μL of DMSO to obtain a 400 mM IBMX DMSO solution. This was further diluted 1:50 in 0.9% sodium chloride to obtain an 8 mM IBMX working solution. The solution was sonicated for 60 minutes before use.
Preparation of BW245C: 10 mM BW245C stock was prepared in DMSO and aliquots were stored at −80° C. On the day of the assay, 10 mM BW245C stock was diluted 1 to 400 in DMSO to make a 25 μM solution. 100 μL of the 25 μM BW245C solution was added to 4900 μL of 0.9% sodium chloride to make a 500 nM working solution.
Dilution of compounds: 10 mM compound DMSO stock solutions were serially diluted 1:3 in DMSO in a 96-well plate to achieve 11 different concentrations ranging from 10 mM to 0.00017 mM. A further 1:20 dilution in 0.9% sodium chloride solution was carried out for each concentration to obtain working concentrations ranging from 500 μM to 0.0085 μM (11 points) for each compound. For positive and negative controls, DMSO (without compound) was diluted 1:20 in 0.9% sodium chloride solution.
Preparation of cAMP standards, cAMP-d2 and anti-cAMP cryptate (all in the assay kit): cAMP standard was reconstituted by adding distilled water according to the manufacturer's instruction (456 μL of water usually). The reconstituted cAMP standard was serially diluted 1:4 in 0.9% sodium chloride solution to achieve 11 different concentrations. cAMP-d2 was reconstituted by adding 2 mL of distilled water and then further diluting it in 8 mL of lysis buffer (in the kit). Anti-cAMP cryptate was reconstituted by adding 1.1 mL of distilled water and then further diluting it in 4.4 mL of lysis buffer.
Assay Procedure: In the assay, each compound was run in duplicate. The final assay volume was 50 μl in each well.
In the assay plate, 42 μL of platelet rich plasma (PRP) was added in each well. This was followed by the addition in each well of 2.5 μL of 8 mM IBMX (final concentration 400 μM) and 3 μL of diluted compound at varying concentrations (final concentrations ranging from 30,000 nM to 0.51 nM, 11 points for each compound). In the positive and negative control wells, 3 μL of diluted DMSO solution was added instead of compound. […]

[1] = compound tested as HCl salt, read-out: hPRP IC50 (as HCl salt)

Structure (SMILES)	IC50 (read-out: hPRP IC50) [nM]	IC50 [1] [nM]
COc1nc(NCCc2ccc(OC(F)(F)F)cc2)cc(N2C[C@@H](C(=O)O)[C@H](c3ccccc3OC)C2)n1 (racemic) [Example 15, (±)-trans-4-(2-Methoxy-phenyl)-1-{2-methoxy-6-[2-(4-trifluoromethoxy-phenyl)-ethylamino]-pyrimidin-4-yl}-pyrrolidine-3-carboxylic acid]	436	–
COc1nc(NCCc2ccc(OC(F)(F)F)cc2)cc(N2CCCCC2C(=O)O)n1 (stereo not drawn) [Example 3, 1-{2-Methoxy-6-[2-(4-trifluoromethoxy-phenyl)-ethylamino]-pyrimidin-4-yl}-piperidine-2-carboxylic acid trifluoroacetate]	–	885
COc1nc(NCCc2ccc(OC(F)(F)F)cc2)cc(N2CCOCC2)n1 [Example 5, (2-Methoxy-6-morpholin-4-yl-pyrimidin-4-yl)-[2-(4-trifluoromethoxy-phenyl)-ethyl]-amine]	–	1180
CCOC(=O)N1CCN(c2cc(NCCc3ccc(OC(F)(F)F)cc3)nc(OC)n2)CC1 [Example 6]	609	–
COc1nc(NCCc2ccc(OC(F)(F)F)cc2)cc(N2C[C@@H](C(=O)O)[C@H](C(C)C)C2)n1 [Example 8, (3S,4S)-4-Isopropyl-1-{2-methoxy-6-[2-(4-trifluoromethoxy-phenyl)-ethylamino]-pyrimidin-4-yl}-pyrrolidine-3-carboxylic acid]	376	–
COc1nc(NCCc2ccc(OC(F)(F)F)cc2)cc(N2CCC(C(=O)O)C2)n1 (stereo not drawn) [Example 9, 1-{2-Methoxy-6-[2-(4-trifluoromethoxy-phenyl)-ethylamino]-pyrimidin-4-yl}-pyrrolidine-3-carboxylic acid]	575	–
COc1ccc([C@H]2CN(c3cc(NCCc4ccc(OC(F)(F)F)cc4)nc(OC)n3)C[C@@H]2C(=O)O)cc1 [Example 11, (3R,4S)-4-(4-Methoxy-phenyl)-1-{2-methoxy-6-[2-(4-trifluoromethoxy-phenyl)-ethylamino]-pyrimidin-4-yl}-pyrrolidine-3-carboxylic acid]	409	–
COc1nc(NCCc2ccc(OC(F)(F)F)cc2)cc(N2CCc3ccccc3C2)n1 [Example 12, [6-(3,4-Dihydro-1H-isoquinolin-2-yl)-2-methoxy-pyrimidin-4-yl]-[2-(4-trifluoromethoxy-phenyl)-ethyl]-amine trifluoroacetic acid salt]	1220	–
COc1nc(NCCc2ccc(OC(F)(F)F)cc2)cc(N2CCN(c3ccccc3)CC2)n1 [Example 13, [2-Methoxy-6-(4-phenyl-piperazin-1-yl)-pyrimidin-4-yl]-[2-(4-trifluoromethoxy-phenyl)-ethyl]-amine]	397	–
COc1nc(NCCc2ccc(OC(F)(F)F)cc2)cc(N2CC[C@H](CC(=O)O)C2)n1 [Example 14, ((R)-1-{2-Methoxy-6-[2-(4-trifluoromethoxy-phenyl)-ethylamino]-pyrimidin-4-yl}-pyrrolidin-3-yl)-acetic acid]	713	–

The remaining molecules from weak to strong by IC50 (read-out: hPRP IC50), led by results:

IC50 (read-out: hPRP IC50) [nM]	IC50 [1] [nM]	Structure (SMILES)
368	–	COc1nc(NCCc2ccc(OC(F)(F)F)cc2)cc(N2CCN(CC(=O)O)CC2)n1 [Example 2, (4-{2-Methoxy-6-[2-(4-trifluoromethoxy-phenyl)-ethylamino]-pyrimidin-4-yl}-piperazin-1-yl)-acetic acid tristrifluoroacetate]
317	–	COc1nc(NCCc2ccc(OC(F)(F)F)cc2)cc(N2CCC(C)(C(=O)O)C2)n1 (stereo not drawn) [Example 7, 1-{2-Methoxy-6-[2-(4-trifluoromethoxy-phenyl)-ethylamino]-pyrimidin-4-yl}-3-methyl-pyrrolidine-3-carboxylic acid]
32	–	COc1nc(NCCc2ccc(OC(F)(F)F)cc2)cc(N2CCCCC2CC(=O)O)n1 (stereo not drawn) [Example 4, (1-{2-Methoxy-6-[2-(4-trifluoromethoxy-phenyl)-ethylamino]-pyrimidin-4-yl}-piperidin-2-yl)-acetic acid trifluoroacetate]
28	–	COc1nc(NCCc2ccc(OC(F)(F)F)cc2)cc(N2C[C@H](C(=O)O)[C@@H](c3ccccc3)C2)n1 [Example 10, (3R,4S)-1-{2-Methoxy-6-[2-(4-trifluoromethoxy-phenyl)-ethylamino]-pyrimidin-4-yl}-4-phenyl-pyrrolidine-3-carboxylic acid]
10	–	COc1nc(NCCc2ccc(OC(F)(F)F)cc2)cc(N2CCOC(C(=O)O)C2)n1 (stereo not drawn) [Example 1, 4-{2-Methoxy-6-[2-(4-trifluoromethoxy-phenyl)-ethylamino]-pyrimidin-4-yl}-morpholine-2-carboxylic acid trifluoroacetate]
